Assay [1] has as its system Streptococcus sp. 'group A'. Kind of assay: Streptococcus pyogenes SK(-)GAS viability under kanamycin – luminescence, BacTiterGlo, confirmation, counter-screen for streptokinase expression inhibitor project, dose response (AID 1900). It counts as functional, organism-based. In general terms: A counterscreen serves to expose hits that act by an unwanted route or on another target.

The target in assay [2] is Beta-galactosidase (Escherichia coli, UniProt Q8VNN2). The assay is described as follows: PubChem AID 485352. It counts as functional.
A short description of assay [3]: Trypanosoma cruzi growth suppression in host cells – NIH3T3 host cells, beta-gal luminescence, confirmation (AID 2044).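 Further: intracellular parasites grown in NIH/3T3 mouse fibroblasts as host cells; luminescent beta-galactosidase reporter signal from transgenic T. cruzi replicating inside host cells; inhibitors lower the luminescence signal.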 It counts as functional, cell-based.
For assay [4], the target named is T1, Type-1 angiotensin II receptor (Homo sapiens, UniProt P30556).
T1 sequence (P30556 whole entry): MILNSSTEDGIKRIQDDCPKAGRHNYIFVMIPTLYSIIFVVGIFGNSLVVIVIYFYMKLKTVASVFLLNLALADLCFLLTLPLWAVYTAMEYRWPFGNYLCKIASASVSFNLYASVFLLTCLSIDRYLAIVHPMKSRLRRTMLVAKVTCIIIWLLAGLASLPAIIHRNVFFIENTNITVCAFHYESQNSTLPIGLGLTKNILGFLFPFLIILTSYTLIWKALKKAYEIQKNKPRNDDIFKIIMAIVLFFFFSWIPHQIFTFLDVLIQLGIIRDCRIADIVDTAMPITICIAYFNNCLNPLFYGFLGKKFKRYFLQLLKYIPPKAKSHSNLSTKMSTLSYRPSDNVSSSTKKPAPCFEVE
The assay is described as follows: antagonism of angiotensin II type 1 receptor – cell-based, uHTS hits, selectivity assay for APJ receptor antagonist project, dose response (AID 463214).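 Further: antagonist potency against angiotensin II stimulated AT1 response.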 In kind it is functional.

Assay [5] in a line: NIH3T3 cell viability loss – ATP luminescence, mouse fibroblasts, counter-screen, dose response (AID 2010).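 Further: cells exposed to compound for about 90 hours before reading.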 In kind it is functional, cell-based.
Assay [6] relates to Streptococcus. Kind of assay: GAS UMAA2166 growth inhibition – luminescence, BacTiterGlo, counter-screen for streptokinase expression inhibitor project, dose response (AID 1915).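 Further: potency for reduction of bacterial viability or growth.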 It counts as functional, organism-based.
Assay [7] can be described thus: THP-1 cell cytotoxicity, dose response, cytotoxicity control for non-replicating M. tuberculosis project (AID 489025). It counts as functional.
Assay [8] in a line: HepG2 cell cytotoxicity, dose response, cytotoxicity control for non-replicating M. tuberculosis project (AID 489018). It counts as functional. Particulars: Mycobacterium tuberculosis.
A short description of assay [9]: Vero E6 cell cytotoxicity, dose response, cytotoxicity control for non-replicating M. tuberculosis project, secondary assay (AID 492998). It counts as functional, VeroE6. Particulars: Vero C1008.
Assay [10] can be described thus: cells. In kind it is functional.
In assay [11] the target is T2, Acyl-homoserine lactone acylase PvdQ (Pseudomonas aeruginosa (strain LESB58), UniProt Q9I194).
T2 sequence (Q9I194 whole entry): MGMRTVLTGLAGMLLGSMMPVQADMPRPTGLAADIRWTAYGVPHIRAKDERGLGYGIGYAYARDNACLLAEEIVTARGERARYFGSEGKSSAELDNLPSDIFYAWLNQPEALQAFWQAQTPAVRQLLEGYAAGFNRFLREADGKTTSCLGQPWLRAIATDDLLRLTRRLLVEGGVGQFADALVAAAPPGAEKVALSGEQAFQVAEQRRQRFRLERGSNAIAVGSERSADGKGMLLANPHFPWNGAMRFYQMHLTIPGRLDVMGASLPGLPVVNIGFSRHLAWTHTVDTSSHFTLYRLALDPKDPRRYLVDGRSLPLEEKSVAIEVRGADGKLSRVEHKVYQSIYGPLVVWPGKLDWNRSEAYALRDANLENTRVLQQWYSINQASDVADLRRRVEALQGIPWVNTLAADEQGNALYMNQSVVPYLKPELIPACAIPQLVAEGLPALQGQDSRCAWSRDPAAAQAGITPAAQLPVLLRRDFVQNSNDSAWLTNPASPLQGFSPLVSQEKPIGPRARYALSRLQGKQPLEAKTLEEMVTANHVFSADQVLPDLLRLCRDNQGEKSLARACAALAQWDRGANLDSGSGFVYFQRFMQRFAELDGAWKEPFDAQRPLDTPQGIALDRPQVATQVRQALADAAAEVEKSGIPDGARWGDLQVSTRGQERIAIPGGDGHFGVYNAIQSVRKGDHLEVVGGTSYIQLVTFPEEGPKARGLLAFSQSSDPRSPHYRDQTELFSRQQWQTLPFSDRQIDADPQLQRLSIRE
The assay is described as follows: PvdQ acylase enzyme activity blockers – biochemical, fluorescence, plate reader and imaging, cherry-picks, dose response (AID 493231).

The nature of assay [12]: viability of PTEN-deleted HCT116 cells – cell-based, HCT116 PTEN knockout, dose response (AID 1047).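 Further: HCT116 colon tumor cells with PTEN knocked out; cells exposed to compound for 60 hours before readout; potency for loss of cell viability measured by luminescence.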 It counts as functional.
The nature of assay [13]: viability of HCT116 lacking mutant beta-catenin – cell-based, human colon tumor, dose response (AID 1045).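 Further: HCT116 colon tumor cells with beta catenin knocked out; cells exposed to compound for 60 hours.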 In kind it is functional.
Assay [14] concerns the target Trypsin (Sus scrofa, UniProt P00761). Kind of assay: trypsin protease activity blockade – biochemical, quenched peptide fluorescence, cherry-pick, selectivity assay for Rce1 protease inhibitor project, dose response (AID 488789).
The target of assay [15] is T3, CAAX prenyl protease 2 (Saccharomyces cerevisiae S288c, UniProt Q03530).
T3 sequence (Q03530 whole entry): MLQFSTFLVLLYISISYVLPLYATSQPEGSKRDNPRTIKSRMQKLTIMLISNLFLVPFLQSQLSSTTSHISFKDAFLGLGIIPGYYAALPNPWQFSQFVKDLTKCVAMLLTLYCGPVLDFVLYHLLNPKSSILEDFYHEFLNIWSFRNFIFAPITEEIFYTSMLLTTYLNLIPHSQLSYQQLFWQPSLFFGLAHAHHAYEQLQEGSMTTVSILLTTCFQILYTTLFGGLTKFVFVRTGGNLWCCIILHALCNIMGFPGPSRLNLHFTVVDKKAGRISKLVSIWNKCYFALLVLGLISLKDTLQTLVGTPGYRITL
It counts as biochemical.

Assay [16] deals with T4, Aryl hydrocarbon receptor (Homo sapiens, UniProt P35869).
T4 sequence (P35869 whole entry): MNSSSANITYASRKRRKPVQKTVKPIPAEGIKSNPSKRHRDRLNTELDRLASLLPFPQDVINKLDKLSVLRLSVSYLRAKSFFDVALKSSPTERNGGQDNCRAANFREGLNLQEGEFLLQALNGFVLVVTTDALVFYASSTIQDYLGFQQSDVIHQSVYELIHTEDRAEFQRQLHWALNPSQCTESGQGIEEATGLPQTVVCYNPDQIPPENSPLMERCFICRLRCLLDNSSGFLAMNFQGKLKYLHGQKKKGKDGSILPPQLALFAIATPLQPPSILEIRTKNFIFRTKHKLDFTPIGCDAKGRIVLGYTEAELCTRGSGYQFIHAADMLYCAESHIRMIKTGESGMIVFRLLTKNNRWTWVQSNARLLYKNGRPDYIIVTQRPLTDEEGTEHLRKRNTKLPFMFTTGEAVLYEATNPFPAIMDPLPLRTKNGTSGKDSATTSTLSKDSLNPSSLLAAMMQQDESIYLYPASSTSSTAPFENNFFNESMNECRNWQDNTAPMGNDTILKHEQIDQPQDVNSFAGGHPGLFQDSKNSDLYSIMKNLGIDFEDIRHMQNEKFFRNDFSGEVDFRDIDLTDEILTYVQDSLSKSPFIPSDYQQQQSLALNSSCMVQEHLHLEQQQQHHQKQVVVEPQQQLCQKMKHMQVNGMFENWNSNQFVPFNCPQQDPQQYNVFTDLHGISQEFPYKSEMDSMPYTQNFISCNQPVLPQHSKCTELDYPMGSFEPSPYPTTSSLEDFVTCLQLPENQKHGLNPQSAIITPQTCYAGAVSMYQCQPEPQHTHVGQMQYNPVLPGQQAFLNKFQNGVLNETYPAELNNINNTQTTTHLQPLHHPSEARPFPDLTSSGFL
Kind of assay: Luminescence-based cell-based high throughput dose response assay for activators of the Aryl Hydrocarbon Receptor (AHR). [Related pubchem assays: 2796 (Primary screen (AHR activators in singlicate)), 2845 (Confirmation screen (AHR activators in triplicate)), 434939 (Counterscreen (PXR activators in triplicate)), 2804 (Summary (AHR activators))]. It counts as ADME.

In assay [17] the target is DNA damage-inducible transcript 3 protein (Mus musculus, UniProt P35639). In kind it is functional, Cricetulus griseus.
The target in assay [18] is G-protein coupled receptor 35 (Homo sapiens, UniProt Q9HC97). Kind of assay: inhibition of zaprinast-stimulated GPR35 beta-arrestin translocation – imaging, U2OS, beta-arrestin-GFP, zaprinast agonist, primary screen (AID 2058).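 Further: antagonist potency meaning inhibition of agonist-induced arrestin redistribution.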 In kind it is functional.
For assay [19], the target named is T5, Streptokinase A (Streptococcus pyogenes serotype M1, UniProt P10520).
T5 sequence (P10520 whole entry): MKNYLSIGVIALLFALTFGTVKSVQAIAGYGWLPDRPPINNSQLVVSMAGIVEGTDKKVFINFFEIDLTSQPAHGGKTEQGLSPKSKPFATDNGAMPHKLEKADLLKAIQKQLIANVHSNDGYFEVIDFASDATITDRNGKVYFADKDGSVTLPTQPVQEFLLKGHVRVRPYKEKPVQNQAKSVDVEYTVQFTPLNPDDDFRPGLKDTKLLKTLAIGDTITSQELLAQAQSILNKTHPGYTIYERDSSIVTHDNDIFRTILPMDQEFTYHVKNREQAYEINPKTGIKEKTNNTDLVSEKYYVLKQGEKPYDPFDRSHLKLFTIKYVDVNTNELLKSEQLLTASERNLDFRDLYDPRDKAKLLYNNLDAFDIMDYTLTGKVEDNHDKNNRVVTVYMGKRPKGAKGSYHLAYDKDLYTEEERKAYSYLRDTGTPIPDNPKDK
Kind of assay: viability-normalized secreted streptokinase activity reduction – plasminogen activation absorbance, OD405, dose response (AID 1914).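 Further: secreted streptokinase activity via plasminogen activation per viability signal from cell pellet.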 It counts as functional, Streptococcus pyogenes M1 GAS.

Assay [20] can be described thus: Luminescence Cell-Based Dose Retest to Confirm Inhibitors of Cancer Stem Cells. [Related pubchem assays (depositor defined):AID2717, AID2721]. It counts as functional. Conditions: Homo sapiens.
Assay [21] deals with Heat shock protein HSP 90-alpha (Homo sapiens, UniProt P07900). In kind it is functional, organism-based.
The target in assay [22] is DNA dC->dU-editing enzyme APOBEC-3A (Homo sapiens, UniProt P31941). Kind of assay: A3A deaminase inhibition for selectivity – biochemical, dose response (AID 504722). In kind it is functional.
In assay [23] the target is DNA dC->dU-editing enzyme APOBEC-3G (Homo sapiens, UniProt Q9HC16). Kind of assay: Dose Response confirmation of small molecule APOBEC3G DNA Deaminase Inhibitors via a fluorescence-based single-stranded DNA deaminase assay. [Related pubchem assays (depositor defined):AID493012, AID493028]. In kind it is functional.

Calls of active or inactive are those of the source. Bounds are passed on as bounds.

As usually defined, the EC50 is the concentration giving half of the maximal effect. A word on the IC50: it is the point on the concentration scale where inhibition reaches its midpoint. The term CC50 denotes the concentration that lowers cell viability or growth by half. As a reminder, the AC50 is the concentration at which the activity in the assay is half-maximal.

Chain of G-protein coupled receptor 35 (Q9HC97 whole entry): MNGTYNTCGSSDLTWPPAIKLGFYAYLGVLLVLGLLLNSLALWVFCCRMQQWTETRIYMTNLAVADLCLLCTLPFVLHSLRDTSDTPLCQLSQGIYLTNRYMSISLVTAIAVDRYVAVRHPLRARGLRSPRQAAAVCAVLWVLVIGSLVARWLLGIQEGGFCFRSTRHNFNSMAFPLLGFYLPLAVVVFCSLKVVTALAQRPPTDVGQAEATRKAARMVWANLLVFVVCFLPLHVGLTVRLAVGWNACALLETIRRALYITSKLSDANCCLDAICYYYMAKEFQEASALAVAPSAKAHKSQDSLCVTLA
Chain of DNA dC->dU-editing enzyme APOBEC-3A (P31941 whole entry): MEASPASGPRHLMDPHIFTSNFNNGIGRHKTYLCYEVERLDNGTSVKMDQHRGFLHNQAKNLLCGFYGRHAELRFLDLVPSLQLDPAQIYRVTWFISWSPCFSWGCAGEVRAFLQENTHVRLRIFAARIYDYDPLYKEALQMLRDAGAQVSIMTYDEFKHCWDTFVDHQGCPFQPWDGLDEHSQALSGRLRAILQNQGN
Chain of DNA damage-inducible transcript 3 protein (P35639 whole entry): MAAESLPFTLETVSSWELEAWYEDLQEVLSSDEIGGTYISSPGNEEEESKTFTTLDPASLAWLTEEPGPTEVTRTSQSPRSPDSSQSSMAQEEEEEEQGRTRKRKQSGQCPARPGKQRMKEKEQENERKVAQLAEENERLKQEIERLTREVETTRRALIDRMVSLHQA
Chain of Trypsin (P00761 whole entry): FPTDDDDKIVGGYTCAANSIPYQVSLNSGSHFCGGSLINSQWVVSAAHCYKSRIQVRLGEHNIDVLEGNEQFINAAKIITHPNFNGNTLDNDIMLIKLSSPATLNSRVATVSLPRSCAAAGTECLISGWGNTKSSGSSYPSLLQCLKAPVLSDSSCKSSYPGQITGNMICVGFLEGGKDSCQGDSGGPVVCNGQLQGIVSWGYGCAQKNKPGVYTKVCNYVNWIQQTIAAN
Chain of Beta-galactosidase (Q8VNN2 whole entry): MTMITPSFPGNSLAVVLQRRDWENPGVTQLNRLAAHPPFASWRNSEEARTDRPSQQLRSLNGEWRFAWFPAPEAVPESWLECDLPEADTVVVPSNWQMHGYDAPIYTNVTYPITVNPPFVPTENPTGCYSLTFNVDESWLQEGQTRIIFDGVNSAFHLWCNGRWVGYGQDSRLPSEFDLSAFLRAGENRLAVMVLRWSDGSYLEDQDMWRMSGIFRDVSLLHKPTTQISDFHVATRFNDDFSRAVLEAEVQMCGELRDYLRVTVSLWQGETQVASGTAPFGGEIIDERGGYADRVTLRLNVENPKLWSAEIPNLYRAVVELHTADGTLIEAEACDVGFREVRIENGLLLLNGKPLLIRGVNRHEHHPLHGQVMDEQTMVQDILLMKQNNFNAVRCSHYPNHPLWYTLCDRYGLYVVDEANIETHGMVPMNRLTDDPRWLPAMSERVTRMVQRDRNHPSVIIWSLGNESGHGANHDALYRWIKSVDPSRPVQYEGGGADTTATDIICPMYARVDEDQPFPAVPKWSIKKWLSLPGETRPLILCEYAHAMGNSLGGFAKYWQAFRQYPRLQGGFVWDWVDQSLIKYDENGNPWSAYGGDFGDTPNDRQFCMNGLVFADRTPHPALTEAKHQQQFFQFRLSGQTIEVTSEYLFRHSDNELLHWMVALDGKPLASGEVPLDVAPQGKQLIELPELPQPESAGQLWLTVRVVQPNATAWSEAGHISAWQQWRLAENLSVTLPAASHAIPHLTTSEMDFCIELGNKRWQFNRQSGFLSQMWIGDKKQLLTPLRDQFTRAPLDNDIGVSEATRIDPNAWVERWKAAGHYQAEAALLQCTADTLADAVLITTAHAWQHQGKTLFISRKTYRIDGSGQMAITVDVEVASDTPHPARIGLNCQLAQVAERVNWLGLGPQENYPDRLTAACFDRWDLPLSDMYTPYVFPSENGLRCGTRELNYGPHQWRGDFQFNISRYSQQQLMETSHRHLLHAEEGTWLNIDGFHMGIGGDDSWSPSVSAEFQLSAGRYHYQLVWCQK
Chain of DNA dC->dU-editing enzyme APOBEC-3G (Q9HC16 whole entry): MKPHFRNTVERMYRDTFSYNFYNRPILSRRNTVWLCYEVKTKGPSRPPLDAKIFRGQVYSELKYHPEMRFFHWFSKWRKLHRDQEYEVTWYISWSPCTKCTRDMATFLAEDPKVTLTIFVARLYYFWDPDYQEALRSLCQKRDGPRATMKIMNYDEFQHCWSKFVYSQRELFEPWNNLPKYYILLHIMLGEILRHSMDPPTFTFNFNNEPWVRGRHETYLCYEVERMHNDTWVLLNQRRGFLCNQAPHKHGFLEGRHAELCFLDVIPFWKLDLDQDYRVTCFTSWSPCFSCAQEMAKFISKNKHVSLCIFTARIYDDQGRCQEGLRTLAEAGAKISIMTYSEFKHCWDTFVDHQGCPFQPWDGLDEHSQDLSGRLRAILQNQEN

For the compound `N=C1S/C(=C\c2ccco2)C(=O)N1c1nccs1`, the concentration giving a half-maximal response (EC50) is 3.66 µM (active) in assay [1]; > 40 µM (inactive) in [2]; 2.11 µM (active) in [3]; > 30 µM (not active) in assay [5]; 9.61 µM (active) in assay [6]. For the same compound, the IC50 is 7.86 µM (active) in assay [4] and 0.2 µM (active) in [10]. In addition, the CC50 in assay [7] is 15.7 µM (active); in assay [8] it was > 20 µM (active); in [9], 9.33 µM (active).
As for `Cc1ccc(S(=O)(=O)NCc2ccc3c(c2)OCO3)cc1C`, the AC50 in assay [11] was 70.4 µM (active).
As to `Oc1ccc(F)cc1-c1cc(-c2ccc3c(c2)OCCO3)[nH]n1`, the values for the EC50 in assay [12] and in [13] were 46.6 µM (active) and 25.9 µM (active), respectively. Moreover, in assay [11], the AC50 is > 100 µM (inactive).
For `c1ccc(-n2nnnc2SCc2cn3cccnc3n2)cc1`, the figures for the AC50 in [14] and in assay [15] were 18.6 µM (active) and 10.5 µM (active), respectively.
`CCOC(=O)Cc1cc(-c2ccc(O)cc2)nc2ccc3ccccc3c12`: the EC50 in assay [16] is 1.47 µM (active). The “Absolute IC50 (CHOP)” value in assay [17] worked out at 10 µM.
As for `CCC(C)NS(=O)(=O)c1ccc(OC)c(Cl)c1Cl` (stereo not drawn), in assay [11], the AC50 is 10 µM (active).
Turning to `CC(NS(=O)(=O)OCC(Cl)(Cl)Cl)c1ccc(C(C)(C)C)cc1` (stereo not drawn), the IC50 in assay [18] is 1.46 µM (active). For the same compound, the 50% effective concentration (EC50) is 4.61 µM (active) in [1], 4.06 µM (active) in assay [19] and 12.8 µM (active) in assay [6]. Also, in assay [20], the AC50 was 2.77 µM (active).
Regarding `CN(C)/C=C/C(=O)c1ccc(N2CCN(c3ncc(C(F)(F)F)cc3Cl)CC2)cc1`, the IC50 in assay [18] was 0.53 µM (active). In assay [21], the AC50 is 4.29 µM (active).
As for `CCc1nnc(S)n1/N=C/c1c(O)ccc2ccccc12`, the values for the IC50 in [22] and in [23] were > 100 µM (inactive) and 4 µM (active), respectively.

These data come from ChEMBL document CHEMBL1201862, “PubChem BioAssay data set” (2004).
